Laboratory results: patent publication US20060040957A1, “BICYCLIC PYRIMIDINE MATRIX METALLOPROTEINASE INHIBITORS” (priority 2001, published 2006)
Structures can show the parent of a compound that is named as a salt.

What was measured:
[1] = molecular target: T1, MMP-7FL (full length matrilysin) (Homo sapiens, UniProt P09237); experiment: Thiopeptolide substrate hydrolysis assay, MMP-7FL; format: biochemical; settings: HEPES pH 7.0, 22° C., read-out: IC50 (μM) Versus Certain MMPs: MMP-07 FL
T1 sequence (P09237 95-267): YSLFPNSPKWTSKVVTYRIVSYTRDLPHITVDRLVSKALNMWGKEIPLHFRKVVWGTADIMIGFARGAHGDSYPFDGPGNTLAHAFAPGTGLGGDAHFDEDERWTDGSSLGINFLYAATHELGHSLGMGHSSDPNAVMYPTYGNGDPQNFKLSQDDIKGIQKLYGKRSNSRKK
From the text: (§1) The invention compounds of Formula I have been evaluated in standard assays for their ability to inhibit the catalytic activity of various MMP enzymes.
(§2) Thiopeptolide substrates show virtually no decomposition or hydrolysis at or below neutral pH in the absence of a matrix metalloproteinase enzyme.
(§3) Several representative compounds have been evaluated for their ability to inhibit various matrix metalloproteinase enzymes.

[2] = molecular target: MMP-3CD (catalytic domain of stromelysin-1) (Homo sapiens, UniProt P08254); experiment: Thiopeptolide substrate hydrolysis assay, MMP-3CD; format: biochemical; settings: MES buffer pH 6.0, read-out: IC50 (μM) Versus Certain MMPs: MMP-03 CD
Method: as §1, §2, §3
It should be appreciated that the assay buffer used with MMP-3CD was 50 mM N-morpholinoethane sulfonate (−MES=) at pH 6.0 rather than the HEPES buffer at pH 7.0 described above.

[3] = molecular target: T2, MMP-1FL (full length interstitial collagenase) (Homo sapiens, UniProt P03956); experiment: Thiopeptolide substrate hydrolysis assay, MMP-1FL; format: biochemical; settings: HEPES pH 7.0, 22° C., read-out: IC50 (μM) Versus Certain MMPs: MMP-01 FL
T2 sequence (P03956 100-469): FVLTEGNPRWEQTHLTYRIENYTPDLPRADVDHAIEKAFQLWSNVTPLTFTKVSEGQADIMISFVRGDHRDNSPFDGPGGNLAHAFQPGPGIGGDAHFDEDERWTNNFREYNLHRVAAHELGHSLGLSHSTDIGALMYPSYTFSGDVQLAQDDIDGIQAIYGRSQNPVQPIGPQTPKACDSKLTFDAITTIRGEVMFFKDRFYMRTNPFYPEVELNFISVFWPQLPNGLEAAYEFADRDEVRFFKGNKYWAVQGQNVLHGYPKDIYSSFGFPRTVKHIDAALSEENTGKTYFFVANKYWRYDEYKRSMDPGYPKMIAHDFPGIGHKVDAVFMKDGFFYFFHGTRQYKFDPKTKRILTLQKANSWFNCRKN
From the text: as §1, §2, §3

[4] = molecular target: MMP-14CD (catalytic domain of MMP-14) (Homo sapiens, UniProt P50281); experiment: Thiopeptolide substrate hydrolysis assay, MMP-14CD; format: biochemical; settings: HEPES pH 7.0, 22° C., read-out: IC50 (μM) Versus Certain MMPs: MMP-14 CD
From the text: as §1, §2, §3

[5] = molecular target: MMP-9FL (full length Gelatinase B) (Homo sapiens, UniProt P14780); experiment: Thiopeptolide substrate hydrolysis assay, MMP-9FL; format: biochemical; settings: HEPES pH 7.0, 22° C., read-out: IC50 (μM) Versus Certain MMPs: MMP-09 FL
From the text: as §1, §2, §3

[6] = molecular target: T3, MMP-2FL (full length Gelatinase A) (Homo sapiens, UniProt P08253); experiment: Thiopeptolide substrate hydrolysis assay, MMP-2FL; format: biochemical; settings: HEPES pH 7.0, 22° C., read-out: IC50 (μM) Versus Certain MMPs: MMP-02 FL
T3 sequence (P08253 110-660): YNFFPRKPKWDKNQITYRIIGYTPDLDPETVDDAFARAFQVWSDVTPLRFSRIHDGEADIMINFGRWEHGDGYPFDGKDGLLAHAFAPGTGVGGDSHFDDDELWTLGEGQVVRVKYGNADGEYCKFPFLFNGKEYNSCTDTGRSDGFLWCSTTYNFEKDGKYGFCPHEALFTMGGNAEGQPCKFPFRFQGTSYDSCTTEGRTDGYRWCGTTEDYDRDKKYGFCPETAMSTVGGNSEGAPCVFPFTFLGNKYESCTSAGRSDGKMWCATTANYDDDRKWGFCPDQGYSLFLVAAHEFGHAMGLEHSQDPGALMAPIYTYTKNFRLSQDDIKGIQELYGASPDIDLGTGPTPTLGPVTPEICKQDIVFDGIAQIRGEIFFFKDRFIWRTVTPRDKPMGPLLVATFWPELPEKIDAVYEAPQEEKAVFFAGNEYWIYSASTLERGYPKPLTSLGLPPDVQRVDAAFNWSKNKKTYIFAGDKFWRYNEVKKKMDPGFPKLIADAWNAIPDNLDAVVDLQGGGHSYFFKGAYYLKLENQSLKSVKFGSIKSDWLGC
From the text: as §1, §2, §3

[7] = molecular target: MMP-13CD (catalytic domain of collagenase 3) (Homo sapiens, UniProt P45452); experiment: Thiopeptolide substrate hydrolysis assay, MMP-13CD; format: biochemical; settings: IC50 (μM) Versus Certain MMPs: MMP-13 CD, thiopeptolide substrate, HEPES pH 7.0, 22° C.
From the text: as §2

MMP-3CD (catalytic domain of stromelysin-1), sequence (P08254 100-272 limits assumed): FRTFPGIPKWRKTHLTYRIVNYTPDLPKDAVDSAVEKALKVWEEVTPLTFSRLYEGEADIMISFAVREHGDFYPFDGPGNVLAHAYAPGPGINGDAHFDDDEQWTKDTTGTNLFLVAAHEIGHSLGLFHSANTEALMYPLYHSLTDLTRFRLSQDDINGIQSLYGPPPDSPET
MMP-9FL (full length Gelatinase B), sequence (P14780 94-707, species assumed): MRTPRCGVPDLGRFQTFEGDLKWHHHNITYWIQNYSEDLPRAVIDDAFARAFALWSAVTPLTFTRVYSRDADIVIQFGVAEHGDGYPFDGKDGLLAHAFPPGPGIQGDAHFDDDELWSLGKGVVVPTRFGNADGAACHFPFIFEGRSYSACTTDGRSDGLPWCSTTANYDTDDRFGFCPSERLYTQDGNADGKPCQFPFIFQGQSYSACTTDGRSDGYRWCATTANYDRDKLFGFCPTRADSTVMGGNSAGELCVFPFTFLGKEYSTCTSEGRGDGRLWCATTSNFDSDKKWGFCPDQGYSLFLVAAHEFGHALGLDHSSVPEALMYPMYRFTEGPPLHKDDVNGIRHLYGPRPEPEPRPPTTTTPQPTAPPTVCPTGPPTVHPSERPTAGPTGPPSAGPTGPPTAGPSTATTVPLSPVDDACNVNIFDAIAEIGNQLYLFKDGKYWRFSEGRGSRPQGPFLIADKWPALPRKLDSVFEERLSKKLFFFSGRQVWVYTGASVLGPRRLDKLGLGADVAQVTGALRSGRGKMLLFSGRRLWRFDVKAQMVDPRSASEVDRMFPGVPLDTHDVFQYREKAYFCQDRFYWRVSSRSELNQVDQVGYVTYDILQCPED

Row | IC50 [1] [µM] | IC50 [2] [µM] | IC50 [3] [µM] | IC50 [4] [µM] | IC50 [5] [µM] | IC50 [6] [µM] | IC50 [7] [µM] | Structure (SMILES) | melting point [°C]
1 | > 100 | 11 | > 100 | > 100 | > 100 | > 100 | – | O=C(OCc1ccncc1)c1cn2c(=O)n(Cc3ccccc3)c(=O)cc2s1 [Example 3, 6-Benzyl-5,7-dioxo-6,7-dihydro-5H-thiazolo[3,2-c]pyrimidine-2-carboxylic acid pyridin-4-ylmethyl ester hydrochloride] | –
2 | 65 | 27 | 81 | 47.5 | 83.5 | > 100 | 0.572 | O=C(NCc1ccccc1)c1cn2c(=O)n(Cc3ccccc3)c(=O)cc2s1 [Example 4, 6-Benzyl-5,7-dioxo-6,7-dihydro-5H-thiazolo[3,2-c]pyrimidine-2-carboxylic acid benzylamide] | –
3 | > 100 | > 100 | > 100 | > 100 | > 100 | > 100 | – | O=C(OCc1ccncc1)C1Cn2c(cc(=O)n(Cc3ccccc3)c2=O)S1 (stereo not shown) [Example 21, 6-Benzyl-5,7-dioxo-2,3,6,7-tetrahydro-5H-thiazolo[3,2-c]pyrimidine-2-carboxylic acid pyridin-4-ylmethyl ester hydrochloride] | –
4 | > 30 | 10 | – | > 100 | > 30 | > 30 | – | Cc1c(=O)n(Cc2ccccc2)c(=O)n2cc(C(=O)NCc3ccc4nsnc4c3)sc12 [Example 42, 6-Benzyl-8-methyl-5,7-dioxo-6,7-dihydro-5H-thiazolo[3,2-c]pyrimidine-2-carboxylic acid(2,1,3-benzothiadiazol-5-ylmethyl)-amide] | –
5 | – | – | > 100 | – | – | – | – | Cc1c(=O)n(Cc2ccc(C(=O)O)cc2)c(=O)n2cc(C(=O)NCc3ccncc3)sc12 [Example 62, 4-{8-Methyl-5,7-dioxo-2-[(pyridin-4-ylmethyl)-carbamoyl]-7H-thiazolo[3,2-c]pyrimidin-6-ylmethyl}-benzoic acid trifluoro-acetate] | –

More lines, now with the values behind:

Row | Structure (SMILES) | IC50 [1] [µM] | IC50 [2] [µM] | IC50 [3] [µM] | IC50 [4] [µM] | IC50 [5] [µM] | IC50 [6] [µM] | IC50 [7] [µM] | melting point [°C]
6 | O=C(OCc1ccccc1)c1cn2c(=O)n(Cc3ccccc3)c(=O)cc2s1 [Example 1, 6-Benzyl-5,7-dioxo-6,7-dihydro-5H-thiazolo[3,2-c]pyrimidine-2-carboxylic acid benzyl ester] | 96 | 23 | > 100 | > 30 | – | – | – | –
7 | Cc1c(=O)n(Cc2ccccc2)c(=O)n2cc(C(=O)OCc3ccccc3)sc12 [Example 2, 6-Benzyl-8-methyl-5,7-dioxo-6,7-dihydro-5H-thiazolo[3,2-c]pyrimidine-2-carboxylic acid benzyl ester] | – | – | > 100 | – | – | – | – | –
8 | COc1cc(CNC(=O)c2cn3c(=O)n(Cc4ccccc4)c(=O)c(C)c3s2)ccn1 [Example 37a, hydrochloride] | 26 | 20.5 | – | – | – | – | 0.0208 | –
9 | COC(=O)c1ccc(Cn2c(=O)c(C)c3sc(C(=O)NCc4ccc(F)cc4)cn3c2=O)cc1OC.Cl [Example 69, 4-[2-(4-Fluoro-benzylcarbamoyl)-8-methyl-5,7-dioxo-7H-thiazolo[3,2-c]pyrimidin-6-ylmethyl]-2-methoxy-benzoic acid methyl ester] | > 30 | 10 | – | > 30 | > 30 | > 30 | – | 191 to 193
10 | COC(=O)c1nc(Cn2c(=O)c(C)c3sc(C(=O)NCc4ccc(F)cc4)cn3c2=O)ncc1OC [Example 78, 2-[2-(4-Fluoro-benzylcarbamoyl)-8-methyl-5,7-dioxo-7H-thiazolo[3,2-c]pyrimidin-6-ylmethyl]-5-methoxy-pyrimidine-4-carboxylic acid methyl ester] | > 30 | > 30 | > 30 | > 30 | > 30 | > 30 | – | –
11 | Cc1c(=O)n(Cc2ccc(S(C)(=O)=O)cc2)c(=O)n2cc(C(=O)NCc3ccncc3)sc12 [Example 81, 6-(4-Methanesulfonyl-benzyl)-8-methyl-5,7-dioxo-6,7-dihydro-5H-thiazolo[3,2-c]pyrimidine-2-carboxylic acid(pyridin-4-ylmethyl)-amide hydrochloride] | – | – | > 100 | – | – | – | – | –
